ChEMBL document CHEMBL2074373, “Effect of the Mdr1a P-glycoprotein gene disruption on the tissue distribution of SDZ PSC 833, a multidrug resistance-reversing agent, in mice” (J Pharmacol Exp Ther, 1998)

Target: ATP-dependent translocase ABCB1 (Mus musculus, UniProt P21447)
Assay: TP_TRANSPORTER: increase in brain concentration in mdr1a(-/-) mouse
Type: functional, organism-based
Conditions: in vivo

Chain of ATP-dependent translocase ABCB1 (P21447 whole entry): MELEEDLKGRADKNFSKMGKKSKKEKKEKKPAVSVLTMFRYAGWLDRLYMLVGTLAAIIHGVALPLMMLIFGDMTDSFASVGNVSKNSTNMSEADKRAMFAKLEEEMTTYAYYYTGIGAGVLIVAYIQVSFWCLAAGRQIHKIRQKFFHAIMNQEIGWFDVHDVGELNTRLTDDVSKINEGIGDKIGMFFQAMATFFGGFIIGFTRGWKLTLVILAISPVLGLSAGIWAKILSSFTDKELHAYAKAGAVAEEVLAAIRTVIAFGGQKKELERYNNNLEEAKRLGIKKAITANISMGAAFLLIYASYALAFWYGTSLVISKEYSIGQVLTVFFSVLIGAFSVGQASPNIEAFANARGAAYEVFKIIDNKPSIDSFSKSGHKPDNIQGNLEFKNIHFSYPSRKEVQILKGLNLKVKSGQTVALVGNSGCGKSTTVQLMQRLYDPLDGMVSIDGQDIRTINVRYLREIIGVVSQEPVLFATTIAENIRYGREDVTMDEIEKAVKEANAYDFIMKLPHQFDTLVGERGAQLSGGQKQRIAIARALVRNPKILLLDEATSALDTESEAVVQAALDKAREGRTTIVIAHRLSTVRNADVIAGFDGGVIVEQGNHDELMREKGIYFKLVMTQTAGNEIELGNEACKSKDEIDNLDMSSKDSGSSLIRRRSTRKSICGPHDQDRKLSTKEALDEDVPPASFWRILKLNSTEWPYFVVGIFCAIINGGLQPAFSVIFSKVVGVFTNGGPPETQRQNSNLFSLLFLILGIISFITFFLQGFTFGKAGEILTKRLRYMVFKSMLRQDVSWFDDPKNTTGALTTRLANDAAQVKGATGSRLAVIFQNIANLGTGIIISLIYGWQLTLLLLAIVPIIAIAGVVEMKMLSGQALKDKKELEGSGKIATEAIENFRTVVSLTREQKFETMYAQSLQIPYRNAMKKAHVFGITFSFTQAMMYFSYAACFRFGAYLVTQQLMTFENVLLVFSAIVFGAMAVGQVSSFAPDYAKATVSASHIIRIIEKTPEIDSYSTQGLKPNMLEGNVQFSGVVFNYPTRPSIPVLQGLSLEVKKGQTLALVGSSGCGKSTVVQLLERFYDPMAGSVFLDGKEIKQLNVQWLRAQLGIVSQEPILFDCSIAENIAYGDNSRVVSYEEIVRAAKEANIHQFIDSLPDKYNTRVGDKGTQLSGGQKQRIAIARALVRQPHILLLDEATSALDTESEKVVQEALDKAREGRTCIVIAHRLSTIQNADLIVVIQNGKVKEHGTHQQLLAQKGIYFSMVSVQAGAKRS

SMILES: C/C=C/C[C@@H](C)C(=O)[C@H]1C(=O)N[C@@H](C(C)C)C(=O)N(C)CC(=O)N(C)[C@@H](CC(C)C)C(=O)N[C@@H](C(C)C)C(=O)N(C)[C@@H](CC(C)C)C(=O)N[C@@H](C)C(=O)N[C@H](C)C(=O)N(C)[C@@H](CC(C)C)C(=O)N(C)[C@@H](CC(C)C)C(=O)N(C)[C@@H](C(C)C)C(=O)N1C [VALSPODAR]
- Activity: substrate [+]
